Measured values from patent publication US20210040062A1, “AZOLE-SUBSTITUTED PYRIDINE COMPOUND” (TAISHO PHARMACEUTICAL CO., LTD., priority 2016, published 2021).

Assays:
human CYP4F2 = target: T1, human CYP4F2 (Homo sapiens, UniProt P78329); assay: CYP4F2 inhibition test (Test Example 1); assay type: biochemical; conditions: Escherichia coli membrane fraction expressing human CYP4F2, 2.5 μM luciferine derivative, room temperature 60 minutes, luminescence
T1 construct: host or cells: Escherichia coli (membrane fraction)
T1 sequence (P78329 5-520): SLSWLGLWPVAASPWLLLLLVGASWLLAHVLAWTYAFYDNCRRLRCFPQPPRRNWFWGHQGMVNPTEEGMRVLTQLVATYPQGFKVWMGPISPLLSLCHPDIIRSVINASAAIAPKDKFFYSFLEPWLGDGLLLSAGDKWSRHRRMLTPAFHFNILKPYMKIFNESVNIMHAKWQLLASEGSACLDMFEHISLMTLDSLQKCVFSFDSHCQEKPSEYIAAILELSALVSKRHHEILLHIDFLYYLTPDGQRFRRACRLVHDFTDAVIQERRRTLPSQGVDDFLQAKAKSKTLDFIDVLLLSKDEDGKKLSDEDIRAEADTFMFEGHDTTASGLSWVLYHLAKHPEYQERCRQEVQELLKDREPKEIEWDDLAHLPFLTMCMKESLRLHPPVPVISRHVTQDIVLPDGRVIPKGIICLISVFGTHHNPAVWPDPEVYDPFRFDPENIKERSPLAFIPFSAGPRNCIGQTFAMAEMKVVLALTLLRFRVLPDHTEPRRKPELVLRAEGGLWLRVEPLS
Experimental: (§1) (1) Inhibition Test for Each Compound of the Present Invention Against 20-HETE Producing Enzymes (CYP4F2 and CYP4A11)
(§2) In the CYP4F2 inhibition test, the reaction solution containing each compound [final concentration of 50 mM, KPO4 (pH 7.4), 2.5 μM, luciferine derivative and 1 mM NADPH] was added to an Escherichia coli membrane fraction (100 μg/mL, protein) in which human CYP4F2 had been expressed. In the CYP4A11 inhibition test, the reaction solution containing each compound [final concentration of 100 mM, Tris-HCl (pH 7.5), 60 μM, luciferine derivative, 1.3 mM NADP^+, 3.3 mM Glucose 6-Phosphate, 3.3 mM MgCl2 and 0.4 U/mL Glucose 6-Phosphate dehydrogenase] was added to an Escherichia coli membrane fraction (100 μg/mL, protein) in which human CYP4A11 had been expressed. Following this, the membrane fraction was left to stand at room temperature for 60 minutes to perform an enzymatic reaction. After the reaction, a luciferine detection reagent was added, and the luminescence value was measured using a plate reader.
(§3) A: Luminescence value with addition of compound
(§4) B: Luminescence value without addition of compound and enzyme
(§5) C: Luminescence value without addition of compound

human CYP4A11 = target: T2, human CYP4A11 (Homo sapiens, UniProt Q02928); assay: CYP4A11 inhibition test (Test Example 1); assay type: biochemical; conditions: Escherichia coli membrane fraction expressing human CYP4A11, 60 μM luciferine derivative, room temperature 60 minutes, luminescence
T2 construct: host or cells: Escherichia coli (membrane fraction)
T2 sequence (Q02928 5-519): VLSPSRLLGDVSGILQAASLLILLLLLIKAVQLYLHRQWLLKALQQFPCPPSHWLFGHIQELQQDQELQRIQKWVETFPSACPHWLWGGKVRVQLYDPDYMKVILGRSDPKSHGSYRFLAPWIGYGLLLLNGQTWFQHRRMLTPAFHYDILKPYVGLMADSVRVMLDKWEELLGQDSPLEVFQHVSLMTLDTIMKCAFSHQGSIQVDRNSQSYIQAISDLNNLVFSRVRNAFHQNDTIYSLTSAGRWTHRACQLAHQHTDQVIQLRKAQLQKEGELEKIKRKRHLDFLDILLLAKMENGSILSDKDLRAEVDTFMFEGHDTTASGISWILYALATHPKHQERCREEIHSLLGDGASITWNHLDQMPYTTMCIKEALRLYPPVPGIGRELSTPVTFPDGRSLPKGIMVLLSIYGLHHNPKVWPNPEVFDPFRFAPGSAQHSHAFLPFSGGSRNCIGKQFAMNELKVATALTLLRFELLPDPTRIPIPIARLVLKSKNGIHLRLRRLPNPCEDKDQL
Experimental: as §1, §2, §3, §4, §5

Row | SMILES | IC50 (human CYP4F2) [nM] | IC50 (human CYP4A11) [nM]
1 | CC(CO)(CO)C(=O)N1CCC[C@@H](COc2ccc(-c3ccn[nH]3)nc2)C1 [Example 4-4] | 4500 | 310
2 | O=C([C@H]1CC[C@H](O)CC1)N1CCC[C@@H](COc2ccc(-c3ccn[nH]3)nc2)C1 [Example 3-2, (4-Hydroxycyclohexyl)-((3R)-3-{[6-(1H-pyrazol-5-yl)pyridin-3-yl]oxymethyl}piperidin-1-yl)methanone] | 2000 | 2600
3 | NC(=O)COc1ccccc1C(=O)N1CCC[C@@H](COc2ccc(-c3ccn[nH]3)nc2)C1 [Example 3-26] | 9200 | 1200
4 | O=C(CC1CC1)N1CCC(COc2ccc(-c3ccn[nH]3)nc2)CC1 [Example 2-2] | 78 | 930
5 | CC(=O)N1CC[C@@H](CCOc2ccc(-c3ccn[nH]3)nc2)C1 [Example 13-8] | 49 | 6500
6 | CC(=O)N1CCC[C@H](COc2ccc(-c3ccn[nH]3)nc2)C1 [Example 1-11] | 180 | 220
7 | Cc1n[nH]cc1-c1ccc(OCc2cccc(S(C)(=O)=O)c2)cn1 [Example 41-2] | 4300 | 1100
8 | O=S1(=O)CCCC(CCOc2ccc(-c3cn[nH]c3)nc2)C1 (stereo not drawn) [Example 43-6] | 3500 | 420
9 | FC(F)(F)Oc1cccc(COc2ccc(-c3ccn[nH]3)nc2)c1 [Example 25-23] | 52 | 160
10 | CS(=O)(=O)c1cccc(COc2ccc(-c3[nH]ncc3C(=O)NC3CC3)nc2)c1 [Example 47-1, N-Cyclopropyl-5-{5-[(3-methylsulfonylphenyl)methoxy]pyridin-2-yl}-1H-pyrazole-4-carboxamide] | 15000 | > 50000
11 | Cc1cn[nH]c1-c1ccc(OC[C@@H]2CCCN(S(=O)(=O)C3CC3)C2)cn1 [Example 10-16] | 45 | 21
12 | CC(=O)N[C@H]1CC[C@H](COc2ccc(-c3ccn[nH]3)nc2)CC1 [Example 14-5] | 220 | 610
13 | CCCCNC(=O)CC(=O)N1CCC[C@@H](COc2ccc(-c3ccn[nH]3)nc2)C1 [Example 2-17] | 480 | 270
14 | CC(=O)N1CCC[C@@H](CCOc2ccc(-c3ccn[nH]3)nc2)C1 [Example 13-4] | 250 | 1300
15 | CS(=O)(=O)N1CCC[C@H](COc2ccc(-c3ccn[nH]3)nc2)C1 [Example 10-7] | 730 | 41
16 | O=S(=O)(CC1CC1)c1cc(COc2ccc(-c3ccn[nH]3)nc2)ccn1 [Example 14-11] | 17 | 30
17 | CS(=O)(=O)c1ccccc1OCCOc1ccc(-c2ccn[nH]2)nc1 [Example 14-14] | 1400 | 6100
18 | O=C(CC1CCS(=O)(=O)C1)N1CCC[C@@H](COc2ccc(-c3ccn[nH]3)nc2)C1 (stereo partly drawn) [Example 3-13] | 280 | 1500
19 | O=C(N1CCC1)N1CCC(COc2ccc(-c3ccn[nH]3)nc2)CC1 [Example 7-1, (Azetidin-1-yl)[4-({[6-(1H-pyrazol-5-yl)pyridin-3-yl]oxy}methyl)piperidin-1-yl]methanone] | 22 | 790
20 | O=C(c1ccccc1)N1CCC(CCOc2ccc(-c3ccn[nH]3)nc2)CC1 [Example 4-3] | 210 | 270
21 | CC(C)NC(=O)N1CCC(CCOc2ccc(-c3ccn[nH]3)nc2)CC1 [Example 9-3] | 150 | 360
22 | c1cc(-c2ccc(OCCC3CCOCC3)cn2)[nH]n1 [Example 13-16] | 890 | 490
23 | O=S(=O)(C1CC1)N1CCC[C@@H](COc2cnc(-c3ccn[nH]3)c(F)c2)C1 [Example 10-17] | 38 | 19

Row | SMILES | IC50 (human CYP4F2) [nM] | IC50 (human CYP4A11) [nM]
24 | CCOC(=O)NCCC(=O)N1CCC[C@@H](COc2ccc(-c3ccn[nH]3)nc2)C1 [Example 1-33] | 54 | 83
25 | CS(=N)(=O)c1cccc(COc2ccc(-c3ccn[nH]3)nc2)c1 (racemic) [Example 50-1, Imino-methyl-oxo-(3-{[6-(1H-pyrazol-5-yl)pyridin-3-yl]oxymethyl}phenyl)-λ^6-sulfane] | 580 | 240
26 | Cc1ccc(S(=O)(=O)c2ccc(COc3ccc(-c4ccn[nH]4)nc3)cc2)cc1 [Example 25-21] | 40 | 2400
27 | COCCC(=O)N1CCC(COc2ccc(-c3ccn[nH]3)nc2)CC1 [Example 2-6] | 290 | 2900
28 | CC(C)OC(=O)NCCS(=O)(=O)N1CCC[C@H](COc2ccc(-c3ccn[nH]3)nc2)C1 [Example 1-21] | 18 | 32
29 | CCc1cccc(COc2ccc(-c3ccn[nH]3)nc2)c1 [Reference Example 53-2, 5-[(3-Ethylphenyl)methoxy]-2-(1H-pyrazol-5-yl)pyridine] | 88 | 120
30 | CS(=O)(=O)c1cccc(COc2ccc(-c3ccns3)nc2)c1 [Example 42-2] | 140 | 65
31 | C[C@@H](CNC(=O)OC(C)(C)C)C(=O)N1CCC[C@@H](COc2ccc(-c3ccn[nH]3)nc2)C1 [Example 2-13] | 73 | 100
32 | Cc1cn[nH]c1-c1ccc(OC[C@@H]2CCN(S(=O)(=O)N(C)C)C2)cn1 [Example 10-20] | 98 | 41
33 | CC(C)S(=O)(=O)N1CCC[C@H](COc2ccc(-c3ccn[nH]3)nc2)C1 [Example 10-9] | 42 | 47
34 | Cc1ccc(COc2ccc(-c3ccn[nH]3)nc2)cc1 [Reference Example 54-2, 5-[(4-Methylphenyl)methoxy]-2-(1H-pyrazol-5-yl)pyridine] | 10 | 560
35 | O=C([C@H]1CC[C@@H](O)CC1)N1CCC[C@@H](COc2ccc(-c3ccn[nH]3)nc2)C1 [Example 3-3, (4-Hydroxycyclohexyl)-((3R)-3-{[6-(1H-pyrazol-5-yl)pyridin-3-yl]oxymethyl}piperidin-1-yl)methanone] | 790 | 1700
36 | CS(=O)(=O)c1cc(F)cc(COc2ccc(-c3ccn[nH]3)nc2)c1 [Example 16-5] | 310 | 79
37 | CC(=O)N1CC[C@H](COc2ccc(-c3ccn[nH]3)nc2)C1 [Example 20-2] | 240 | 1600
38 | CC(=O)NCC12CC(COc3ccc(-c4ccn[nH]4)nc3)(C1)C2 [Example 21-1, N-{[3-({[6-(1H-Pyrazol-5-yl)pyridin-3-yl]oxy}methyl)bicyclo[1.1.1]pentan-1-yl]methyl}acetamide] | 150 | 1200
39 | CC(=O)NCCCC(=O)N1CCC[C@@H](COc2ccc(-c3ccn[nH]3)nc2)C1 [Example 3-43] | 570 | 720
40 | Clc1ccc(COc2ccc(-c3ccn[nH]3)nc2)cc1 [54-21] | 9.3 | 650
41 | CN(C)S(=O)(=O)N1CC[C@@H](COc2cnc(-c3ccn[nH]3)c(F)c2)C1 [Example 10-18] | 110 | 48
42 | CN(C)S(=O)(=O)N1CC[C@@H](COc2ccc(-c3ccn[nH]3)nc2)C1 [Example 10-12] | 210 | 120
43 | O=S1(=O)CCCC(COc2ccc(-c3cn[nH]c3)nc2)C1 (stereo not drawn) [Example 43-4] | 5400 | 390
44 | O=S(=O)(N1CCCC1)N1CCC[C@@H](COc2ccc(-c3ccn[nH]3)nc2)C1 [Example 11-2] | 12 | 24
45 | c1cc(-c2ccc(OCc3cncc(-n4nccn4)c3)cn2)[nH]n1 [Example 25-8] | 230 | 2500
